Reference: patent US20240158446A1, “CYCLIC COMPOUND HAVING SELECTIVE INHIBITORY ACTION ON KRAS OVER HRAS AND NRAS” (CHUGAI SEIYAKU KABUSHIKI KAISHA, priority 2021, published 2024)
Like-named read-outs stand apart in the source and are kept apart here. *1 amine or outer side, *2 acyl side, *3 side chain or, on linkers, in order; H or OH if unused. Where a SMILES comes first, the peptide text is derived from it. Bridges are numbered along the chain shown (N, C = ends). [ ]: non-standard residue; d: D form. The star is where a group is joined. X22 = O=C([C@H](Cc1ccc(C(F)(F)F)cc1)N(CC1CCCC1)[*:1])[*:2]; hPhe(3-Cl-4-CF3) = N[C@@H](CCc1ccc(C(F)(F)F)c(Cl)c1)C(=O)O; NEtPhe(4-Me) = CCN[C@@H](Cc1ccc(C)cc1)C(=O)O; NMePhe(4-Me) = CN[C@@H](Cc1ccc(C)cc1)C(=O)O; NMeGly(cPent) = CN[C@H](C(=O)O)C1CCCC1; NMeD = CN[C@@H](CC(=O)O)C(=O)O; NMeL = CN[C@@H](CC(C)C)C(=O)O; Morpholide = C1CN(*)CCO1; NMeA = CN[C@@H](C)C(=O)O; Ac5c = NC1(C(=O)O)CCCC1; Aze = O=C(O)[C@@H]1CCN1; NEtG = CCNCC(=O)O; Sar = CNCC(=O)O

What was measured:
[1] = biological target: GDP-bound KRAS wild-type protein (Homo sapiens, UniProt P01116); assay: Binding to KRAS by surface plasmon resonance (SPR), Single Cycle Kinetics; details: GDP-bound KRAS wild-type protein, read-out: KRAS KD
Sequence of GDP-bound KRAS wild-type protein (P01116 whole entry): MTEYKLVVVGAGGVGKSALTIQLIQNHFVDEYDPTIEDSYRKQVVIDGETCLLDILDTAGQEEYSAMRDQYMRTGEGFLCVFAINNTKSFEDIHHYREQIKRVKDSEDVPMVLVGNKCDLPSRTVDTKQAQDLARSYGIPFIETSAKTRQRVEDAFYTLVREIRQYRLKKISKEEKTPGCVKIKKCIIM

[2] = biological target: GDP-bound NRAS wild-type protein (Homo sapiens, UniProt P01111); assay: Binding to NRAS by surface plasmon resonance (SPR), Single Cycle Kinetics; details: for NRAS/KRAS (ratio of KD value for NRAS to KD value for KRAS) / NRAS/KRAS (ratio of KD value with respect to NRAS to KD value with respect to KRAS): SPR, GDP-bound NRAS wild-type protein vs GDP-bound KRAS wild-type protein
Sequence of GDP-bound NRAS wild-type protein (P01111 whole entry): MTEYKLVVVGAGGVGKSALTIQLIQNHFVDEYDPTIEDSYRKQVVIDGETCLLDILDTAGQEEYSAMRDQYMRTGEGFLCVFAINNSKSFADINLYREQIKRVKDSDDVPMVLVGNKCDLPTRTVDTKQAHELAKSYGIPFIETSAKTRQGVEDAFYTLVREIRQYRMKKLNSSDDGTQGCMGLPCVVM

[3] = biological target: GDP-bound HRAS wild-type protein (Homo sapiens, UniProt P01112); assay: Binding to HRAS by surface plasmon resonance (SPR), Single Cycle Kinetics; details: for HRAS/KRAS (ratio of KD value for HRAS to KD value for KRAS) / HRAS/KRAS (ratio of KD value with respect to HRAS to KD value with respect to KRAS): SPR, GDP-bound HRAS wild-type protein vs GDP-bound KRAS wild-type protein
Sequence of GDP-bound HRAS wild-type protein (P01112 whole entry): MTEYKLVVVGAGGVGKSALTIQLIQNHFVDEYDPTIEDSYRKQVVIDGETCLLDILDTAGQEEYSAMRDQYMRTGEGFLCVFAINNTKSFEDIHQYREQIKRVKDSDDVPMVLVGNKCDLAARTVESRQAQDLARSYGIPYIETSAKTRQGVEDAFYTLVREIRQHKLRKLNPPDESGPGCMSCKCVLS

[4] = SPR Single Cycle Kinetics, 1:1 binding model

Kd ([1]; SPR, Single Cycle Kinetics) [nM] | Kd [1, 4] [nM] | Compound | NRAS/KRAS (ratio of KD value for NRAS to KD value for KRAS) [2] | HRAS/KRAS (ratio of KD value for HRAS to KD value for KRAS) [3] | NRAS/KRAS (ratio of KD value with respect to NRAS to KD value with respect to KRAS) [2] | HRAS/KRAS (ratio of KD value with respect to HRAS to KD value with respect to KRAS) [3] | NRAS/KRAS (ratio of KD value with respect to GDP-bound NRAS wild-type protein to KD value with respect to KRAS) ([2]; SPR KD ratio NRAS/KRAS, class symbols) | HRAS/KRAS (ratio of KD value with respect to GDP-bound HRAS wild-type protein to KD value with respect to KRAS) ([3]; SPR KD ratio HRAS/KRAS, class symbols)
0.033 |  | CCO[C@@H]1C[C@H]2C(=O)NC3(CCC3)C(=O)N(C)[C@@H](C3CCCC3)C(=O)N(C)[C@H](C(=O)N(C)C)CC(=O)N(C)[C@@H](C)C(=O)N[C@@H]([C@@H](C)CC)C(=O)N(C)CC(=O)N(C)[C@H]3C/C=C\CCN(C3=O)[C@@H](Cc3ccc(C(F)(F)F)cc3)C(=O)N(C)CC(=O)N[C@@H](CCc3cc(F)c(C(F)(F)F)c(F)c3)C(=O)N2C1 [PP1108, (2S,8S,12R,14S,20S,23S,27S,30S,36S,38Z)-20-cyclopentyl-8-[2-[3,5-difluoro-4-(trifluoromethyl)phenyl]ethyl]-12-ethoxy-N,N,4,19,22,26,27,32,35-nonamethyl-30-[(1S)-1-methylpropyl]-3,6,9,15,18,21,25,28,31,34,42-undecaoxo-2-[[4-(trifluoromethyl)phenyl]methyl]spiro[1,4,7,10,16,19,22,26,29,32,35-undecazatricyclo[34.5.1.0^10,14]dotetracont-38-ene-17,1′-cyclobutane]-23-carboxamide] | A (a compound having 10 or more and less than 20 is denoted as A) | A (a compound having 10 or more and less than 20 is denoted as A) |  |  |  | 
 | 0.11 | CC[C@H](C)[C@@H]1NC(=O)[C@H](CC(C)C)N(CC)C(=O)C[C@@H](C(=O)N2CCOCC2)N(C)C(=O)[C@H](C2CCCC2)N(C)C(=O)C2(CCCC2)NC(=O)[C@@H]2CCCN2C(=O)[C@H](CCc2cc(F)c(C(F)(F)F)c(F)c2)NC(=O)CN(C)C(=O)[C@H](Cc2ccc(C(F)(F)F)cc2)N2CCCC[C@@H](C2=O)N(C)C(=O)CN(C)C1=O [PP0588] |  |  | B (a compound having 3 or more and less than 10 is denoted as B) | B (a compound having 3 or more and less than 10 is denoted as B) |  | 
0.11 |  | CCO[C@@H]1C[C@H]2C(=O)NC3(CC(C)(C)C3)C(=O)N(C)[C@@H](C3CCCC3)C(=O)N(C)[C@H](C(=O)N3CCCC3)CC(=O)N(C)[C@H]3CCCCCc4ccc(cc4)C[C@@H](C(=O)N(C)CC(=O)N[C@@H](CCc4ccc(C(F)(F)F)c(OC)c4)C(=O)N2C1)N1CC/C=C\C[C@@H](C1=O)N(C)C(=O)CN(C)C(=O)[C@H]([C@@H](C)CC)NC3=O [PP3037, (1S,7S,11R,13S,19S,22S,26S,29S,35S,37Z)-19-cyclopentyl-11-ethoxy-7-[2-[3-methoxy-4-(trifluoromethyl)phenyl]ethyl]-3,3′,3′,18,21,25,31,34-octamethyl-29-[(1S)-1-methylpropyl]-22-(pyrrolidine-1-carbonyl)spiro[3,6,9,15,18,21,25,28,31,34,41-undecazapentacyclo[24.15.10.2^43,46.1^35,41.0^9,13]tetrapentaconta-37,43(53),44,46(52)-tetraene-16,1′-cyclobutane]-2,5,8,14,17,20,24,27,30,33,54-undecone] | A (a compound having 10 or more and less than 20 is denoted as A) | B (a compound having 3 or more and less than 10 is denoted as B) |  |  |  | 
 | 2.4 | CC[C@H](C)[C@@H]1NC(=O)[C@H](CC(C)C)N(C)C(=O)C[C@@H](C(=O)N2CCOCC2)N(C)C(=O)[C@H](C2CCCC2)N(C)C(=O)C2(CCCC2)NC(=O)[C@@H]2CCCN2C(=O)[C@H](CCc2ccc(C(F)(F)F)c(Cl)c2)NC(=O)CN(CC)C(=O)[C@H](Cc2ccc(C)cc2)N(C)C(=O)[C@@H]2CCN2C(=O)[C@H](C)N(C)C1=O [PP0004] ([NMeL]I[NMeA][Aze][NMePhe(4-Me)][NEtG][hPhe(3-Cl-4-CF3)]P[Ac5c][NMeGly(cPent)][NMeD]-Morpholide; lactam N-11) | C (A compound having a KD ratio of 0.1 or more and less than 3 is denoted as C) | C (A compound having a KD ratio of 0.1 or more and less than 3 is denoted as C) |  |  |  | 
 | 0.04 | CC[C@H](C)[C@@H]1NC(=O)[C@H](CC(C)C)N(C)C(=O)C[C@@H](C(=O)N2CCOCC2)N(C)C(=O)[C@H](C2CCCC2)N(C)C(=O)C2(CC(F)(F)C2)NC(=O)[C@@H]2CCCN2C(=O)[C@H](CCc2cc(F)c(C(F)(F)F)c(F)c2)NC(=O)CN(C)C(=O)[C@H](Cc2ccc(C(F)(F)F)cc2)N2CCCC[C@@H](C2=O)N(C)C(=O)CN(C)C1=O [PP0562] |  |  | B (a compound having 3 or more and less than 10 is denoted as B) | B (a compound having 3 or more and less than 10 is denoted as B) |  | 
1.7 |  | CCC[C@H]1C(=O)N[C@@H]([C@@H](C)CC)C(=O)N(C)CC(=O)N(C)[C@H]2C/C=C\CCN(C2=O)[C@@H](CC2CCC(F)(F)CC2)C(=O)N(C)CC(=O)N[C@@H](CCc2ccc(C(F)(F)F)c(OC)c2)C(=O)N2C[C@H](OCC)C[C@H]2C(=O)N(C)C2(CCC2)C(=O)N(C)[C@@H](C(CC)CC)C(=O)N(C)[C@H](C(=O)N(C)C)CC(=O)N1C [PP2345] | A (a compound having 10 or more and less than 20 is denoted as A) | A (a compound having 10 or more and less than 20 is denoted as A) |  |  |  | 
 | 4 | CC[C@H](C)[C@@H]1NC(=O)[C@H](CC(C)C)N(C)C(=O)C[C@@H](C(=O)N2CCOCC2)N(C)C(=O)[C@H](C2CCCC2)N(C)C(=O)C2(CCCC2)NC(=O)[C@@H]2CCCN2C(=O)[C@H](CCc2ccc(C(F)(F)F)c(Cl)c2)NC(=O)CN(C)C(=O)[C@H](Cc2ccc(C(F)(F)F)cc2)N(CC2CCCC2)C(=O)[C@@H]2CCN2C(=O)[C@H](C)N(C)C1=O [PP0110] ([NMeL]I[NMeA][Aze][X22][Sar][hPhe(3-Cl-4-CF3)]P[Ac5c][NMeGly(cPent)][NMeD]-Morpholide; lactam N-11) | C (A compound having a KD ratio of 0.1 or more and less than 3 is denoted as C) | B (a compound having 3 or more and less than 10 is denoted as B) |  |  |  | 
 | 1.5 | CCC[C@H]1C(=O)N[C@@H]([C@@H](C)CC)C(=O)N(C)CC(=O)N(C)[C@H]2C/C=C\CCN(C2=O)[C@@H](Cc2ccc(C(F)(F)F)cc2)C(=O)N(C)CC(=O)N[C@@H](CCc2cc(F)c(C(F)F)c(F)c2)C(=O)N2C[C@H](OCC)C[C@H]2C(=O)NC2(CC(C)(C)C2)C(=O)N(C)[C@@H](C(CC)CC)C(=O)N(C)[C@H](C(=O)N(C)C)CC(=O)N1C [PP2781] |  |  |  |  | AA (a compound having 20 or more is denoted as AA) | A (a compound having 10 or more and less than 20 is denoted as A)
 | 0.18 | CC[C@H](C)[C@@H]1NC(=O)[C@H](C)N(C)C(=O)C[C@@H](C(=O)N2CCOCC2)N(C)C(=O)[C@H](C2CCCC2)N(C)C(=O)C2(CCCC2)NC(=O)[C@@H]2CCCN2C(=O)[C@H](CCc2ccc(C(F)(F)F)c(Cl)c2)NC(=O)CN(C)C(=O)[C@H](Cc2ccc(C)cc2)N(CC)C(=O)CN(C)C(=O)CN(C)C1=O [PP0031] ([NMeA]I[Sar][Sar][NEtPhe(4-Me)][Sar][hPhe(3-Cl-4-CF3)]P[Ac5c][NMeGly(cPent)][NMeD]-Morpholide; lactam N-11) | B (a compound having 3 or more and less than 10 is denoted as B) | C (A compound having a KD ratio of 0.1 or more and less than 3 is denoted as C) |  |  |  | 
